Reference: PubChem BioAssay (NCI)
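Cells were grown in 96-well plates and exposed to each compound for 48 hours at five concentrations; endpoints were interpolated linearly between bracketing concentrations, or set to the highest concentration if not reached. GI50: concentration for 50% inhibition of growth. Definition used: TGI = concentration required for complete inhibition of growth.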

Experiments:
Assay in all cases: NCI-60 cell line screen, 48 h
[1] = test system: MDA-MB-468 breast
[2] = test system: SNB-75 CNS
[3] = test system: SK-MEL-28 melanoma
[4] = test system: CAKI-1 renal
[5] = test system: HS 578T breast
[6] = test system: SF-295 CNS
[7] = test system: COLO 205 colon
[8] = test system: HOP-92 NSCLC
[9] = test system: OVCAR-4 ovarian
[10] = test system: RXF 393 renal
[11] = test system: BT-549 breast
[12] = test system: MOLT-4 leukemia
[13] = test system: HCT-15 colon
[14] = test system: T-47D breast
[15] = test system: HL-60(TB) leukemia
[16] = test system: K-562 leukemia
[17] = test system: UACC-257 melanoma
[18] = test system: SK-OV-3 ovarian
[19] = test system: UO-31 renal
[20] = test system: OVCAR-8 ovarian
[21] = test system: SNB-19 CNS
[22] = test system: HCT-116 colon
[23] = test system: UACC-62 melanoma
[24] = test system: A549 NSCLC
[25] = test system: RPMI-8226 leukemia
[26] = test system: HOP-62 NSCLC
[27] = test system: MCF7 breast
[28] = test system: IGROV1 ovarian
[29] = test system: CCRF-CEM leukemia
[30] = test system: SW-620 colon
[31] = test system: ACHN renal
[32] = test system: EKVX NSCLC
[33] = test system: A498 renal
[34] = test system: OVCAR-5 ovarian
[35] = test system: LOX IMVI melanoma
[36] = test system: SN12C renal
[37] = test system: DU-145 prostate
[38] = test system: NCI/ADR-RES ovarian
[39] = test system: 786-0 renal
[40] = test system: SF-539 CNS
[41] = test system: KM12 colon
[42] = test system: M14 melanoma
[43] = test system: MDA-MB-231 breast
[44] = test system: MALME-3M melanoma
[45] = test system: NCI-H522 lung
[46] = test system: U251 CNS
[47] = test system: SK-MEL-2 melanoma
[48] = test system: HT29 colon
[49] = test system: MDA-MB-435
[50] = test system: PC-3 prostate
[51] = test system: HCC-2998 colon
[52] = test system: NCI-H460 lung
[53] = test system: SK-MEL-5 melanoma
[54] = test system: SF-268 CNS
[55] = test system: NCI-H226 lung
[56] = test system: TK-10 renal
[57] = test system: OVCAR-3 ovarian
[58] = test system: NCI-H23 lung

## Cc1cc(CNC(=O)OCc2ccccc2)c(C)c2c1Oc1ccccc1O2
[1]
  GI50: 95.6 µM
  TGI: > 100 µM

## O=c1nc(Nc2cccc(Cl)c2)oc2cc(Cl)oc(=O)c12
[1]
  GI50: 2.44 µM
  TGI: 6.75 µM

## COc1ccc(-c2cc(/C=C3\C(=O)Nc4ccc(Cl)cc43)[nH]n2)cc1
[1]
  GI50: 3.6 µM
  TGI: 13.5 µM

## COCCOC(=O)NC(=O)Nc1ccc(/C(=N/O)c2ccc(Cl)cc2)cc1
[1]
  GI50: 0.0813 µM
  TGI: 0.616 µM

## COc1cc(/C=C\[N+](=O)[O-])ccc1OCc1ccccc1
[1]
  GI50: 1.47 µM
  TGI: 3.26 µM

## CCCCCCCCCCN(CCCCCCCCCC)CC(=O)c1ccc2cc(Br)c3ccccc3c2c1
[1]
  GI50: 1.7 µM
  TGI: 3.14 µM

## OCC1OC(n2ccc3c(NO)ncnc32)C(O)C1O (centres undefined)
[1]
  GI50: 0.122 µM
  TGI: 0.777 µM

## ClC(Cl)c1nc(-c2cccnc2)n2nc(-c3ccccc3)cc2n1
[1]
  GI50: 0.247 µM
  TGI: 0.793 µM

## COc1ccc(/C=C/c2nc(NCCCN(C)C)c3ccccc3n2)cc1
[1]
  GI50: 1.31 µM
  TGI: 2.64 µM

## N#Cc1cnc2cc(OC[C@@H](O)CO)c(NC(=O)CC3CSSC3)cc2c1Nc1ccc(OCc2cccc(F)c2)c(Cl)c1
[1]
  GI50: 0.0698 µM
  TGI: 0.155 µM

## CC(C)c1ccc(C(=O)Nc2sc3c(c2C#N)CCC(=O)C3)cc1
[1]
  GI50: 0.389 µM
  TGI: 2.4 µM

## COc1ccc2c(Nc3ccc(NS(C)(=O)=O)cc3)c3ccccc3nc2c1
[1]
  GI50: 0.414 µM
  TGI: 1.74 µM

## O=C(Nc1ccc(F)cc1)c1c(NC(=O)C(F)(F)F)sc2c1CCCCC2
[1]
  GI50: 1.04 µM
  TGI: 4.85 µM

## C=C1C(=O)O[C@H]2[C@H]1CC/C(COC(=O)NCc1ccc(Cn3c(=O)sn(CCCCl)c3=O)cc1)=C\CC[C@@]1(C)O[C@@H]21
[1]
  GI50: 1.53 µM
  TGI: 4.33 µM

## CC1=C[C@H]2c3c(c(O)c(O)c4oc5ccccc5c(=O)c34)[C@H](c3cc(O)c(O)c4oc5ccccc5c(=O)c34)[C@H]2C(C)(C)C1
[1]
  GI50: 2.02 µM
  TGI: 6.04 µM

## Cc1nc2sc(C(=O)Nc3cccc4ccccc34)c(N)c2cc1C(=O)c1ccccc1
[1]
  GI50: 1.66 µM
  TGI: > 50 µM

## NC1CCN(c2nc(Nc3cccc(C(F)(F)F)c3)c3c(=O)[nH]ccc3n2)CC1
[1]
  GI50: 1.49 µM
  TGI: 2.98 µM

## CCOC(=O)c1[nH]c(-c2ccc(Cl)cc2)cc1-c1cccnc1
[1]
  GI50: 0.493 µM
  TGI: 4.33 µM

## N=C(N=C(N)N)N1CCN(c2ccncc2)CC1
[1]
  GI50: > 1000 µM
  TGI: > 1000 µM

## Clc1ccc2[nH]cc(-c3nc(-c4c[nH]c5ncccc45)cs3)c2c1
[1]
  GI50: 2.62 µM
  TGI: 9.41 µM

## CC/C=C\C[C@H](O)C/C=C1/C(=O)C=C[C@@H]1C/C=C\CCCC(=O)N(C)C
[1]
  GI50: 1.43 µM
  TGI: 3.38 µM

## O=[N+]([O-])c1ccc(N/N=C/c2c(O)ccc3ccccc23)nc1
[1]
  GI50: 4.47 µM
  TGI: 49.4 µM

## Cc1cc(C)c(C[N+](C)(C)C)c(C)c1C
[1]
  GI50: 0.495 µM
  TGI: 9.2 µM

## COC1CC2C=C(C)/C=C/C=C/C(=O)NC(c3ccccc3)C/C=C/CCC(O)CC(=O)C2=C1O (centres undefined)
[1]
  GI50: 0.283 µM
  TGI: 1.24 µM

## COC(=O)c1c2c(c(C)[n+]([O-])c1C)C(=O)C=C(NCc1ccc(F)c(F)c1)C2=O
[1]
  GI50: 0.242 µM
  TGI: 0.705 µM

## Cc1cccc(-c2nc(Nc3ccc(C)c(S(N)(=O)=O)c3)c3ccccc3n2)c1
[2]
  GI50: 13.1 µM
  TGI: 52 µM
[3]
  GI50: 11.4 µM
  TGI: 28.8 µM
[4]
  GI50: 5.78 µM
  TGI: 21.8 µM
[5]
  GI50: 10.4 µM
  TGI: 61.1 µM
[6]
  GI50: 2.61 µM
  TGI: 8.28 µM
[7]
  GI50: 7.07 µM
  TGI: 19.8 µM
[8]
  GI50: 6.46 µM
  TGI: 27.2 µM
[9]
  GI50: 8.5 µM
  TGI: > 100 µM
[10]
  GI50: 3.3 µM
  TGI: 11 µM
[11]
  GI50: 15.8 µM
  TGI: 63.5 µM
[12]
  GI50: 3.73 µM
  TGI: 33.8 µM
[13]
  GI50: 3.07 µM
  TGI: 10.8 µM
[14]
  GI50: 3.61 µM
  TGI: 16.7 µM
[15]
  GI50: 4.67 µM
  TGI: 61.5 µM
[16]
  GI50: 3.47 µM
  TGI: 19 µM
[17]
  GI50: 18.3 µM
  TGI: 51.4 µM
[18]
  GI50: 17.6 µM
  TGI: 47.8 µM
[19]
  GI50: 5.57 µM
  TGI: 27.1 µM
[20]
  GI50: 9.17 µM
  TGI: 43.4 µM
[21]
  GI50: 10.5 µM
  TGI: 53 µM
[22]
  GI50: 5.84 µM
  TGI: 19.6 µM
[23]
  GI50: 13.6 µM
  TGI: 30.2 µM
[24]
  GI50: 6.51 µM
  TGI: 32.8 µM
[25]
  GI50: 4.38 µM
  TGI: 35 µM
[26]
  GI50: 11 µM
  TGI: 26.6 µM
[27]
  GI50: 3.16 µM
  TGI: 12.9 µM
[28]
  GI50: 10.3 µM
  TGI: 32.7 µM
[29]
  GI50: 4.11 µM
  TGI: 25.8 µM
[1]
  GI50: 4.07 µM
  TGI: 16.5 µM
[30]
  GI50: 6.44 µM
  TGI: 24 µM
[31]
  GI50: 4.8 µM
  TGI: 21 µM
[32]
  GI50: 6.18 µM
  TGI: 24.1 µM
[33]
  GI50: 8.25 µM
  TGI: 25.8 µM
[34]
  GI50: 12.4 µM
  TGI: 27.4 µM
[35]
  GI50: 3.31 µM
  TGI: 12.5 µM
[36]
  GI50: 11.5 µM
  TGI: 28.2 µM
[37]
  GI50: 13.1 µM
  TGI: 69.2 µM
[38]
  GI50: 5.6 µM
  TGI: 35.9 µM
[39]
  GI50: 5.68 µM
  TGI: 17.8 µM
[40]
  GI50: 7.78 µM
  TGI: 27 µM
[41]
  GI50: 3.32 µM
  TGI: > 100 µM
[42]
  GI50: 9.55 µM
  TGI: 21.3 µM
[43]
  GI50: 4.04 µM
  TGI: 17.5 µM
[44]
  GI50: 13.9 µM
  TGI: 32.1 µM
[45]
  GI50: 2.72 µM
  TGI: 7.93 µM
[46]
  GI50: 8.08 µM
  TGI: 34.2 µM
[47]
  GI50: 11.4 µM
  TGI: 32.1 µM
[48]
  GI50: 4.67 µM
  TGI: 18.8 µM
[49]
  GI50: 10.5 µM
  TGI: 67.3 µM
[50]
  GI50: 4.09 µM
  TGI: 55.4 µM
[51]
  GI50: 3.1 µM
  TGI: 10.8 µM
[52]
  GI50: 3.94 µM
  TGI: 25 µM
[53]
  GI50: 11 µM
  TGI: 24.7 µM
[54]
  GI50: 11.8 µM
  TGI: > 100 µM
[55]
  GI50: 11.6 µM
  TGI: 35.1 µM
[56]
  GI50: 15.3 µM
  TGI: 41.9 µM
[57]
  GI50: 9.36 µM
  TGI: > 100 µM
[58]
  GI50: 13.3 µM
  TGI: 33.5 µM

## CCOC(=O)C(=Cc1ccccc1[N+](=O)[O-])C(=O)OCC
[1]
  GI50: 1.53 µM
  TGI: 4.68 µM

## CC(=O)[C@@H]1CCC=C2CC[C@]3(C)[C@@H](CC[C@@H]4[C@@]5(C)CCCNC(C)(C)[C@@H]5CC[C@]43C)[C@H]21
[1]
  GI50: 1.78 µM
  TGI: 3.43 µM

## CCN1C(=S)N(CC)C2C1NC(=S)N2/N=C/C=C/c1ccccc1 (centres undefined)
[1]
  GI50: 0.458 µM
  TGI: 4.19 µM

## Cn1c(=O)c(Oc2ccccc2F)cc2cnc(NC3CCOCC3)nc21
[1]
  GI50: > 25 µM
  TGI: > 25 µM

## NNc1cccc(/C=C/c2ccccc2)cc1=O
[1]
  GI50: 8.46 µM
  TGI: 90.7 µM

## NC(=O)c1cc(Br)cc(C2CCCCC2)c1O
[1]
  GI50: 13.8 µM
  TGI: 29.2 µM

## CN(C)CCCN1c2nc3ccccc3cc2Sc2cc3ccccc3nc21
[1]
  GI50: 1.65 µM
  TGI: 4.44 µM

## Nc1nnc2cc(Cl)ccc2n1
[1]
  GI50: > 100 µM
  TGI: > 100 µM

## O=C(c1ccc2ncc(-c3nc(NC4CC4)ncc3F)n2c1)N1CCOCC1
[1]
  GI50: 1.79 µM
  TGI: 4.34 µM
